From article PMC3466204 (PLoS ONE, 2012)
“And” between values parts separate entries of the source, which are not always exact repeats. Equal entries are not always repeated. Ends that are not written are not given here.

Legend:
C. sakazakii DPC 6440 [1] = test: Broth MIC, Gram negative; type: cell-based, Cronobacter sakazakii; conditions: cells washed in 10 mM SPB pH 7.4, 2×10^5 CFU/mL, 2 h RT with peptide, then double strength LB, RT overnight, mean of triplicate assays
Protocol: (§1) Minimum inhibitory concentration determinations for Gram negative strains were carried out in triplicate in 96 well microtitre plates. Briefly, bacteria (E. coli, C. sakazakii and Salmonella) grown to mid-logarithmic phase were harvested by centrifugation, washed with 10 mM SPB at pH 7.4, and diluted to 2×10^5 colony-forming units (CFU)/mL in SPB. Nisin and nisin derivative peptides were resuspended in sterile HPLC water and 50 µL aliquots were added to wells containing 50 µL of 2×10^5 CFU of bacteria. Plates were incubated at RT for two hours with agitation. Double strength Luria–Bertani (LB) broth (100 µL) was added and the plates were incubated at RT overnight, the MIC was taken as the lowest concentration at which growth was inhibited.

[2] = system: Salmonella enterica serovar Typhimurium UK1; test: Broth MIC, Gram negative; type: cell-based; conditions: cells washed in 10 mM SPB pH 7.4, 2×10^5 CFU/mL, 2 h RT with peptide, then double strength LB, RT overnight, mean of triplicate assays
Protocol: as §1

E. coli 0157-H7 [3] = test: Broth MIC, Gram negative; type: cell-based; conditions: cells washed in 10 mM SPB pH 7.4, 2×10^5 CFU/mL, 2 h RT with peptide, then double strength LB, RT overnight, mean of triplicate assays
Protocol: as §1

E. durans 5133 = test: Broth MIC, Gram positive; type: cell-based, Enterococcus durans; conditions: broth microtitre, BSA pre-treated plates, 10^5 cfu ml^−1, 2-fold dilutions from 2.5 µM, 16 h 37°C, purified peptide, mean of triplicate assays
Protocol: (§2) Minimum inhibitory concentration determinations for Gram positive organisms were carried out in triplicate in microtitre plates (Sarstedt). 96 well microtitre plates were pre-treated with bovine serum albumin (BSA) prior to addition of the peptides. Briefly, to each well of the microtitre plate 200 µL of phosphate buffered saline (PBS) containing 1% (w/v) bovine serum albumin (PBS/BSA) was added and incubated at 37°C for 30 min. The wells were washed with 200 µL PBS and allowed to dry. Target strains were grown overnight in the appropriate conditions and medium, subcultured into fresh broth and allowed to grow to an OD600 of ∼0.5, diluted to a final concentration of 10^5 cfu ml^−1 in a volume of 0.2 ml. Wild type nisin and nisin mutant peptides were adjusted to a 10 µM (S. mitis, B. cereus), 7.5 µM (L. monocytogenes), 5 µM (hVISA) 2.5 µM (MRSA, E. durans), or 500 nM (L. lactis strains) starting concentration and 2-fold serial dilutions of each peptide were added to the target strain.

S. mitis UCC5000 = test: Broth MIC, Gram positive; type: cell-based, Streptococcus mitis; conditions: broth microtitre, BSA pre-treated plates, 10^5 cfu ml^−1, 2-fold dilutions from 10 µM, 16 h 37°C, purified peptide, mean of triplicate assays
Protocol: as §2

S. aureus RF122 = test: Broth MIC, Gram positive; type: cell-based; conditions: broth microtitre, BSA pre-treated plates, 10^5 cfu ml^−1, 2-fold dilutions, 16 h 37°C, purified peptide, mean of triplicate assays
Protocol: as §2

L. lactis HP = test: Broth MIC, Gram positive; type: cell-based; conditions: broth microtitre, BSA pre-treated plates, 10^5 cfu ml^−1, 2-fold dilutions from 500 nM, 16 h, purified peptide, mean of triplicate assays
Protocol: as §2

[4] = system: Salmonella enterica serovar Typhimurium UK1; test: Agarose gel diffusion assay, purified peptide; type: cell-based; conditions: purified peptide 60 µM; for Zone of inhibition, agarose gel diffusion: Salmonella Typhimurium UK1, mean of triplicate assays; for Zone as % wt: Salmonella Typhimurium UK1, relative to nisin A
Protocol: (§3) Agarose-based deferred antagonism assays were carried out as follows: GM17/LB (0.03%) underlay was prepared with 10 mM sodium phosphate buffer (SPB) at pH 7.4 to which was added agarose (1% w/v agarose), autoclaved and cooled to 50°C. Bacteria grown to mid-logarithmic phase were harvested by centrifugation and washed with 10 mM SPB at pH 7.4. Bacteria were then added to 15 mls cooled underlay medium to reach a concentration of 2×10^7 colony-forming units (CFU)/mL. The inoculated medium was rapidly transferred into sterile Petri plates, allowed to solidify and dried. Wells (4.6 mm in diameter) were then made in the seeded plates. 10 µl volumes of cell-free supernatant from overnight nisin derivative producing cultures or resuspended purified peptides were then added to the wells and the plates incubated at 30°C (L. lactis) or 37°C (Gram positive strains) or RT (Gram negative strains) for 3 hours. Polymyxin B (Sigma Aldrich) was used at a concentration of 20 µg/ml. The plates were then overlaid with 15 mls of autoclaved double strength GM17 (L. lactis) or LB (Gram negatives) agarose (1% w/v agarose) overlay medium precooled to 50°C. The plates were then incubated overnight at the relevant temperature.

E. coli 0157-H7 [5] = test: Agarose gel diffusion assay, purified peptide; type: cell-based; conditions: purified peptide 60 µM; for Zone of inhibition, agarose gel diffusion: E. coli 0157-H7, mean of triplicate assays; for Zone as % wt: E. coli 0157-H7, relative to nisin A
Protocol: as §3

B. cereus DPC 6088 = test: Broth MIC, Gram positive; type: cell-based, Bacillus cereus; conditions: broth microtitre, BSA pre-treated plates, 10^5 cfu ml^−1, 2-fold dilutions from 10 µM, 16 h 37°C, purified peptide, mean of triplicate assays
Protocol: as §2

B. cereus DPC 6089 = test: Broth MIC, Gram positive; type: cell-based, Bacillus cereus; conditions: broth microtitre, BSA pre-treated plates, 10^5 cfu ml^−1, 2-fold dilutions from 10 µM, 16 h 37°C, purified peptide, mean of triplicate assays
Protocol: as §2

C. sakazakii DPC 6440 [6] = test: Agarose gel diffusion assay, purified peptide; type: cell-based, Cronobacter sakazakii; conditions: purified peptide 60 µM; for Zone of inhibition, agarose gel diffusion: C. sakazakii DPC 6440, mean of triplicate assays; for Zone as % wt: C. sakazakii DPC 6440, relative to nisin A
Protocol: as §3

Lactococcus lactis HP = test: Agarose-based assay of cell-free supernatants of S29X producing strains; conditions: for Zone Diameter (mm): agarose (1%) GM17 assay, 10 µl cell-free supernatant of overnight producing culture in 4.6 mm wells, L. lactis HP, 30°C; for % difference (zone relative to wild type): agarose assay of supernatants against L. lactis HP, wild type serine = 100
Protocol: as §3

L. lactis MG1363 = test: Broth MIC, Gram positive; type: cell-based; conditions: broth microtitre, BSA pre-treated plates, 10^5 cfu ml^−1, 2-fold dilutions from 500 nM, 16 h, purified peptide, mean of triplicate assays
Protocol: as §2

[7] = system: ST 530 (Methicillin resistant S. aureus); test: Broth MIC, Gram positive; type: cell-based; conditions: broth microtitre, BSA pre-treated plates, 10^5 cfu ml^−1, 2-fold dilutions from 2.5 µM, 16 h 37°C, purified peptide, mean of triplicate assays
Protocol: as §2

L. monocytogenes LO28 = test: Broth MIC, Gram positive; type: cell-based; conditions: broth microtitre, BSA pre-treated plates, 10^5 cfu ml^−1, 2-fold dilutions from 7.5 µM, 16 h 37°C, purified peptide, mean of triplicate assays
Protocol: as §2

[8] = system: hVISA 32679 (heterogenous Vancomycin-intermediate S. aureus); test: Broth MIC, Gram positive; type: cell-based; conditions: broth microtitre, BSA pre-treated plates, 10^5 cfu ml^−1, 2-fold dilutions from 5 µM, 16 h 37°C, purified peptide, mean of triplicate assays
Protocol: as §2

L. monocytogenes 10403S = test: Broth MIC, Gram positive; type: cell-based; conditions: broth microtitre, BSA pre-treated plates, 10^5 cfu ml^−1, 2-fold dilutions from 7.5 µM, 16 h 37°C, purified peptide, mean of triplicate assays
Protocol: as §2

[9] = system: ST 528 (Methicillin resistant S. aureus); test: Broth MIC, Gram positive; type: cell-based; conditions: broth microtitre, BSA pre-treated plates, 10^5 cfu ml^−1, 2-fold dilutions from 2.5 µM, 16 h 37°C, purified peptide, mean of triplicate assays
Protocol: as §2

With “M21K: M21K hinge derivative of nisin A, generated and purified for comparison (ITSISLCTPGCKTGALMGCNKKTATCHCSIHVSK; thioether (positions not given here); not fully specified (residues 2, 5, 33, bridges); UniProt P13068 24-57, looked up, variant M21K)” the MIC (C. sakazakii DPC 6440 [1]) was 6.28 mg/L and 1.875 µM, the MIC [2] was 50.28 mg/L and 15 µM and the MIC (E. coli 0157-H7 [3]) was 25.14 mg/L and 7.5 µM. The MIC (E. durans 5133) was 0.52 mg/L and 0.156 µM, the MIC (S. mitis UCC5000) was 8.38 mg/L and 2.5 µM and the MIC (S. aureus RF122) was 1.04 mg/L and 0.312 µM. For the same substance, the MIC (L. lactis HP) was 0.2 mg/L and 0.062 µM, the “Zone of inhibition, agarose gel diffusion” value (“Zone of inhibition” below) [4] was 10.75±0.12 mm and the “Zone as % wt” value [4] was 109 % wt. The “Zone of inhibition” value (E. coli 0157-H7 [5]) was 10.80±0.01 mm, the “Zone as % wt” value (E. coli 0157-H7 [5]) was 110 % wt and the MIC (B. cereus DPC 6088) was 16.76 mg/L and 5.0 µM. The MIC (B. cereus DPC 6089) was 16.76 mg/L and 5.0 µM, the “Zone of inhibition” value (C. sakazakii DPC 6440 [6]) was 10.51±0.10 mm and the “Zone as % wt” value (C. sakazakii DPC 6440 [6]) was 108 % wt.
For “S29D: bioengineered nisin A derivative, serine 29 replaced by aspartic acid (ITSISLCTPGCKTGALMGCNMKTATCHCDIHVSK; thioether (positions not given here); not fully specified (residues 2, 5, 33, bridges); UniProt P13068 24-57, looked up, variant S29D)”, the MIC (C. sakazakii DPC 6440 [1]) was 6.28 mg/L and 1.875 µM, the MIC [2] was > 100 mg/L and > 30 µM and the MIC (E. coli 0157-H7 [3]) was > 100 mg/L and > 30 µM. The MIC (E. durans 5133) was 0.52 mg/L and 0.156 µM, the MIC (S. mitis UCC5000) was 16.76 mg/L and 5.0 µM and the “Zone Diameter (mm)” value (Lactococcus lactis HP) was 20.3±0.8 mm. The “% difference (zone relative to wild type)” value (Lactococcus lactis HP) was 133 (0.006) %, the MIC (L. lactis MG1363) was 0.4 mg/L and 0.125 µM and the MIC (S. aureus RF122) was 4.19 mg/L and 1.25 µM. The MIC [7] was 0.52 mg/L and 0.156 µM, the MIC (L. monocytogenes LO28) was 12.57 mg/L and 3.75 µM and the MIC [8] was 4.19 mg/L and 1.25 µM. The MIC (L. lactis HP) was 0.05 mg/L and 0.015 µM, the MIC (L. monocytogenes 10403S) was 12.57 mg/L and 3.75 µM and the MIC [9] was 0.26 mg/L and 0.078 µM. For the same substance, the “Zone of inhibition” value [4] was 8.22±0.16 mm, the “Zone as % wt” value [4] was 83 % wt and the “Zone of inhibition” value (E. coli 0157-H7 [5]) was 8.27±0.08 mm. The “Zone as % wt” value (E. coli 0157-H7 [5]) was 84 % wt, the MIC (B. cereus DPC 6088) was 16.76 mg/L and 5.0 µM and the MIC (B. cereus DPC 6089) was 8.38 mg/L and 2.5 µM. For the same substance, the “Zone of inhibition” value (C. sakazakii DPC 6440 [6]) was 10.10±0.19 mm and the “Zone as % wt” value (C. sakazakii DPC 6440 [6]) was 103 % wt.
“S29E: bioengineered nisin A derivative, serine 29 replaced by glutamic acid (ITSISLCTPGCKTGALMGCNMKTATCHCEIHVSK; not fully specified (residues 2, 5, 33, bridges); cysteine pairing not given here; UniProt P13068 24-57, looked up, variant S29E)” was tested, and the MIC (C. sakazakii DPC 6440 [1]) was 12.57 mg/L and 3.75 µM, the MIC [2] was 50.28 mg/L and 15 µM and the MIC (E. coli 0157-H7 [3]) was 25.14 mg/L and 7.5 µM. For the same substance, the MIC (E. durans 5133) was 0.52 mg/L and 0.156 µM, the MIC (S. mitis UCC5000) was 4.19 mg/L and the “Zone Diameter (mm)” value (Lactococcus lactis HP) was 18.6±0.3 mm. The “% difference (zone relative to wild type)” value (Lactococcus lactis HP) was 122 (0.0004) %, the MIC (L. lactis MG1363) was 0.8 mg/L and 0.250 µM and the MIC (S. aureus RF122) was 2 mg/L and 0.625 µM. The MIC [7] was 0.52 mg/L, the MIC (L. monocytogenes LO28) was 6.28 mg/L and 1.875 µM and the MIC [8] was 4.19 mg/L and 1.25 µM. For the same substance, the MIC (L. lactis HP) was 0.05 mg/L and 0.015 µM, the MIC (L. monocytogenes 10403S) was 12.57 mg/L and 3.75 µM and the MIC [9] was 0.52 mg/L. For the same substance, the “Zone of inhibition” value [4] was 10.77±0.07 mm, the “Zone as % wt” value [4] was 109 % wt and the “Zone of inhibition” value (E. coli 0157-H7 [5]) was 10.54±0.19 mm. For the same substance, the “Zone as % wt” value (E. coli 0157-H7 [5]) was 107 % wt, the MIC (B. cereus DPC 6088) was 4.19 mg/L and 1.25 µM and the MIC (B. cereus DPC 6089) was 4.19 mg/L and 1.25 µM. For the same substance, the “Zone of inhibition” value (C. sakazakii DPC 6440 [6]) was 7.98±0.29 mm and the “Zone as % wt” value (C. sakazakii DPC 6440 [6]) was 81 % wt.
